Assay [1] concerns GM1 production in Jurkat cells. Nature of the assay: cells. The class given is cell-based. Conditions: Homo sapiens, Jurkat, 72 h.
The target of assay [2] is T1, glucosylceramide synthase (GCS) (Homo sapiens, UniProt Q16739).
T1 construct: The obtained supernatant was used; host or cells: A549 cells (lysate supernatant after sonication)
T1 sequence (Q16739 1-394): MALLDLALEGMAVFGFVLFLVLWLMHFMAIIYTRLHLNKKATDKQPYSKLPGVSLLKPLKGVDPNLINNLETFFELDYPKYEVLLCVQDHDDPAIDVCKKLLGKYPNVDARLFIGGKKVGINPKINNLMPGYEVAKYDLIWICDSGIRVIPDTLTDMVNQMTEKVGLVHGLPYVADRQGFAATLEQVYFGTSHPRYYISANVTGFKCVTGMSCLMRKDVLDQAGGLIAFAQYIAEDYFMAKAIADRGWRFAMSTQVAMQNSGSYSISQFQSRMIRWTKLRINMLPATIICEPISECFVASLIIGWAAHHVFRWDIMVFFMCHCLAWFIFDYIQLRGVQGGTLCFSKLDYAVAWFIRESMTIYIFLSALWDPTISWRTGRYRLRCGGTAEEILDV
Kind of assay: GCS enzyme inhibition assay (A549 cell lysate, NBD C6-ceramide, HPLC fluorescence). The class given is biochemical. Conditions: inhibitory activity against GCS, 37° C., 90 minutes. In outline:
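A549 cell lysate (50 mM HEPES pH 7.3) served as GCS source; reactions ran 90 min at 37° C, were stopped with chloroform/methanol and lipids extracted. Activity taken as GlcCer/(Cer+GlcCer) peak area, normalised between DMSO and ibiglustat controls.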

As usually defined, the IC50 is the concentration at which inhibition is half-maximal. A lower IC50 goes with inhibition by little substance.

Regarding `O=C(NC1CCSc2cc(-c3cc(Cl)ccc3Cl)ccc21)O[C@@H]1CN2CCC1CC2` (stereo partly drawn) [Example 323, (S)-quinuclidin-3-yl (7-(2,5-dichlorophenyl)thiochroman-4-yl)carbamate], the figures for the IC50 in assay [1] and in assay [2] were 26.3 nM and 0.63 nM, respectively.
Consider `CCOc1cccc(-c2ccc3c(c2)SCCC3NC(=O)O[C@@H]2CN3CCC2CC3)c1` (stereo partly drawn) [Example 324, (S)-quinuclidin-3-yl (7-(3-ethoxyphenyl)thiochroman-4-yl)carbamate], for which the IC50 in assay [1] stood at 14.4 nM; in assay [2], 1.25 nM.
Consider `CSc1cccc(-c2ccc3c(c2)SCCC3NC(=O)O[C@@H]2CN3CCC2CC3)c1` (stereo partly drawn) [Example 325, (S)-quinuclidin-3-yl (7-(3-(methylthio)phenyl)thiochroman-4-yl)carbamate], for which the 50% inhibitory concentration (IC50) in assay [1] is 6.13 nM; in assay [2] it was 0.58 nM.
Regarding `CN(C)c1cccc(-c2ccc3c(c2)SCCC3NC(=O)O[C@@H]2CN3CCC2CC3)c1` (stereo partly drawn) [Example 326, (S)-quinuclidin-3-yl (7-(3-(dimethylamino)phenyl)thiochroman-4-yl)carbamate], the IC50 worked out at 10.3 nM in assay [1] and 0.64 nM in assay [2].
Taken in the same sequence, the figures for `O=C(NC1CCSc2cc(-c3ccc4c(c3)OC(F)(F)O4)ccc21)O[C@@H]1CN2CCC1CC2` (stereo partly drawn) [Example 327, (S)-quinuclidin-3-yl (7-(2,2-difluorobenzo[d][1,3]dioxol-5-yl)thiochroman-4-yl)carbamate] were 37.6 nM and 2.7 nM.
In the case of `O=C(NC1CCSc2cc(-c3coc4ccccc34)ccc21)O[C@@H]1CN2CCC1CC2` (stereo partly drawn) [Example 328, (S)-quinuclidin-3-yl (7-(benzofuran-3-yl)thiochroman-4-yl)carbamate], the IC50 in assay [1] was determined as 13.8 nM; in assay [2] it was 1.18 nM.
On to `CC1(C)CSc2ccc(-c3ccc(C(F)(F)F)cc3)cc2C1NC(=O)O[C@@H]1CN2CCC1CC2` (stereo partly drawn) [Example 329, (S)-quinuclidin-3-yl (3,3-dimethyl-6-(4-(trifluoromethyl)phenyl)thiochroman-4-yl)carbamate], for which the concentration for half-maximal inhibition (IC50) in assay [1] stood at 33.8 nM; in assay [2], 14.9 nM.
As for `CC1(C)COc2cc(-c3cccc(F)c3)c(F)cc2C1NC(=O)O[C@@H]1CN2CCC1CC2` (stereo partly drawn) [Example 330, (S)-quinuclidin-3-yl (6-fluoro-7-(3-fluorophenyl)-3,3-dimethylchroman-4-yl)carbamate], the IC50 in assay [1] came to 1.8 nM; in assay [2], 0.28 nM.
Take `CC1(C)COc2cc(-c3ccc(F)cc3)c(F)cc2C1NC(=O)O[C@@H]1CN2CCC1CC2` (stereo partly drawn) [Example 331, (S)-quinuclidin-3-yl (6-fluoro-7-(4-fluorophenyl)-3,3-dimethylchroman-4-yl)carbamate]: the 50% inhibitory concentration (IC50) in assay [1] was found to be 3.7 nM; in assay [2] it was 0.36 nM.
The corresponding values for `CC1(C)COc2cc(-c3cccc(Cl)c3)c(F)cc2C1NC(=O)O[C@@H]1CN2CCC1CC2` (stereo partly drawn) [Example 332, (S)-quinuclidin-3-yl (6-fluoro-7-(3-chlorophenyl)-3,3-dimethylchroman-4-yl)carbamate] are 0.9 nM and 0.39 nM.
Consider `CCc1cccc(-c2cc3c(cc2F)C(NC(=O)O[C@@H]2CN4CCC2CC4)C(C)(C)CO3)c1` (stereo partly drawn) [Example 333, (S)-quinuclidin-3-yl (7-(3-ethylphenyl)-6-fluoro-3,3-dimethylchroman-4-yl)carbamate], for which the IC50 in assay [1] stood at 0.8 nM; in assay [2] it was 0.45 nM.
Taken in the same sequence, the figures for `CCc1ccc(-c2cc3c(cc2F)C(NC(=O)O[C@@H]2CN4CCC2CC4)C(C)(C)CO3)cc1` (stereo partly drawn) [Example 334, (S)-quinuclidin-3-yl (7-(4-ethylphenyl)-6-fluoro-3,3-dimethylchroman-4-yl)carbamate] were 0.4 nM and 0.33 nM.
Regarding `COc1cccc(-c2cc3c(cc2F)C(NC(=O)O[C@@H]2CN4CCC2CC4)C(C)(C)CO3)c1` (stereo partly drawn) [Example 335, (S)-quinuclidin-3-yl (6-fluoro-7-(3-methoxyphenyl)-3,3-dimethylchroman-4-yl)carbamate], the IC50 in assay [1] is 2 nM; in assay [2], 0.35 nM.
In the case of `COc1ccc(-c2cc3c(cc2F)C(NC(=O)O[C@@H]2CN4CCC2CC4)C(C)(C)CO3)cc1` (stereo partly drawn) [Example 336, (S)-quinuclidin-3-yl (6-fluoro-7-(4-methoxyphenyl)-3,3-dimethylchroman-4-yl)carbamate], the 50% inhibitory concentration (IC50) came out at 3.5 nM in assay [1] and 0.27 nM in assay [2].
As to `CCOc1ccc(-c2cc3c(cc2F)C(NC(=O)O[C@@H]2CN4CCC2CC4)C(C)(C)CO3)cc1` (stereo partly drawn) [Example 337, (S)-quinuclidin-3-yl (7-(4-ethoxyphenyl)-6-fluoro-3,3-dimethylchroman-4-yl)carbamate], the IC50 in assay [1] was found to be 1.2 nM; in assay [2] it was 0.23 nM.
The corresponding values for `CC1(C)COc2cc(-c3ccsc3)c(F)cc2C1NC(=O)O[C@@H]1CN2CCC1CC2` (stereo partly drawn) [Example 338, (S)-quinuclidin-3-yl (6-fluoro-3,3-dimethyl-7-(thiophen-3-yl)chroman-4-yl)carbamate] are 3.3 nM and 0.19 nM.
The corresponding values for `CC(C)c1cccc(-c2cc3c(cc2F)C(NC(=O)O[C@@H]2CN4CCC2CC4)C(C)(C)CO3)c1` (stereo partly drawn) [Example 339, (S)-quinuclidin-3-yl (6-fluoro-7-(3-isopropylphenyl)-3,3-dimethylchroman-4-yl)carbamate] are 0.2 nM and 0.61 nM.
Regarding `COc1ccc(Cl)c(-c2cc3c(cc2F)C(NC(=O)O[C@@H]2CN4CCC2CC4)C(C)(C)CO3)c1` (stereo partly drawn) [Example 340, (S)-quinuclidin-3-yl (7-(2-chloro-5-methoxyphenyl)-6-fluoro-3,3-dimethylchroman-4-yl)carbamate], the IC50 turned out to be 2.4 nM in assay [1] and 0.48 nM in assay [2].
Take `COc1ccc(-c2cc3c(cc2F)C(NC(=O)O[C@@H]2CN4CCC2CC4)C(C)(C)CO3)c(F)c1` (stereo partly drawn) [Example 341, (S)-quinuclidin-3-yl (6-fluoro-7-(2-fluoro-4-methoxyphenyl)-3,3-dimethylchroman-4-yl)carbamate]: the IC50 in assay [1] was 4.1 nM; in assay [2], 0.17 nM.
The corresponding values for `COc1ccc(-c2cc3c(cc2F)C(NC(=O)O[C@@H]2CN4CCC2CC4)C(C)(C)CO3)c(C)c1` (stereo partly drawn) [Example 342, (S)-quinuclidin-3-yl (6-fluoro-7-(4-methoxy-2-methylphenyl)-3,3-dimethylchroman-4-yl)carbamate] are 3.5 nM and 0.45 nM.
The corresponding values for `CCCCc1ccc(-c2cc3c(cc2F)C(NC(=O)O[C@@H]2CN4CCC2CC4)C(C)(C)CO3)cc1` (stereo partly drawn) [Example 343, (S)-quinuclidin-3-yl (7-(4-butylphenyl)-6-fluoro-3,3-dimethylchroman-4-yl)carbamate] are 0.1 nM and 0.12 nM.
For `CC(C)Oc1ccc(-c2cc3c(cc2F)C(NC(=O)O[C@@H]2CN4CCC2CC4)C(C)(C)CO3)cc1Cl` (stereo partly drawn) [Example 344, (S)-quinuclidin-3-yl (7-(3-chloro-4-isopropoxyphenyl)-6-fluoro-3,3-dimethylchroman-4-yl)carbamate], the 50% inhibitory concentration (IC50) in assay [1] came out at 7.3 nM; in assay [2] it was 0.58 nM.
For the molecule `CC(C)(C)c1ccc(-c2cc3c(cc2F)C(NC(=O)O[C@@H]2CN4CCC2CC4)C(C)(C)CO3)cc1` (stereo partly drawn) [Example 345, (S)-quinuclidin-3-yl (7-(4-(tert-butyl)phenyl)-6-fluoro-3,3-dimethylchroman-4-yl)carbamate], the results for the IC50 in assay [1] and in assay [2] were 1.6 nM and 0.37 nM, respectively.
`COc1c(C)cc(-c2cc3c(cc2F)C(NC(=O)O[C@@H]2CN4CCC2CC4)C(C)(C)CO3)cc1C` (stereo partly drawn) [Example 346, (S)-quinuclidin-3-yl (6-fluoro-7-(4-methoxy-3,5-dimethylphenyl)-3,3-dimethylchroman-4-yl)carbamate]: the figures for the IC50 in assay [1] and in assay [2] were 9.5 nM and 1.18 nM, respectively.
As to `CC(C)COc1ccc(-c2cc3c(cc2F)C(NC(=O)O[C@@H]2CN4CCC2CC4)C(C)(C)CO3)cc1` (stereo partly drawn) [Example 347, (S)-quinuclidin-3-yl (6-fluoro-7-(4-isobutoxyphenyl)-3,3-dimethylchroman-4-yl)carbamate], the values for the IC50 in assay [1] and in assay [2] were 0.02 nM and 0.23 nM, respectively.
As to `CC(C)Oc1ccc(-c2cc3c(cc2F)C(NC(=O)O[C@@H]2CN4CCC2CC4)C(C)(C)CO3)cn1` (stereo partly drawn) [Example 348, (S)-quinuclidin-3-yl (6-fluoro-7-(6-isopropoxypyridin-3-yl)-3,3-dimethylchroman-4-yl)carbamate], the figures for the half-maximal inhibitory concentration (IC50) in assay [1] and in assay [2] were 0.5 nM and 0.24 nM, respectively.
Turning to `COc1cc2c(cc1-c1cccc(F)c1)OCC(C)(C)C2NC(=O)O[C@@H]1CN2CCC1CC2` (stereo partly drawn) [Example 349, (S)-quinuclidin-3-yl (7-(3-fluorophenyl)-6-methoxy-3,3-dimethylchroman-4-yl)carbamate], the 50% inhibitory concentration (IC50) in assay [1] worked out at 3.2 nM; in assay [2], 0.32 nM.
For `COc1cc2c(cc1-c1ccc(F)cc1)OCC(C)(C)C2NC(=O)O[C@@H]1CN2CCC1CC2` (stereo partly drawn) [Example 350, (S)-quinuclidin-3-yl (7-(4-fluorophenyl)-6-methoxy-3,3-dimethylchroman-4-yl)carbamate], the IC50 in assay [1] was found to be 7.5 nM; in assay [2] it was 0.47 nM.
As for `COc1cc2c(cc1-c1cccc(Cl)c1)OCC(C)(C)C2NC(=O)O[C@@H]1CN2CCC1CC2` (stereo partly drawn) [Example 351, (S)-quinuclidin-3-yl (7-(3-chlorophenyl)-6-methoxy-3,3-dimethylchroman-4-yl)carbamate], the IC50 in assay [1] was 1.7 nM; in assay [2], 0.45 nM.

For the origin of these results see patent US12673944B2, “Compounds having inhibitory activity against glucosylceramide synthase or pharmaceutically acceptable salt thereof, processes for preparing the same, and pharmaceutical compositions comprising the same” (YUHAN CORPORATION, priority 2019, dated 2026).
